Measurements as given in ChEMBL document CHEMBL4507291 (2021).
pKi: −log10 of the molar value.

Legend:
[1] = test system: Tyrosine-protein kinase ABL1 (Homo sapiens), P00519 [G250E]; experiment: ABL1 G250E Kinase screen; details: Compound concentration 1.0 uM
[2] = target: Tyrosine-protein kinase JAK1 (Homo sapiens) (UniProt P23458); experiment: JAK1 Kinase screen; details: Compound concentration 1.0 uM
[3] = target: Ribosomal protein S6 kinase alpha-6 (Homo sapiens) (UniProt Q9UK32); experiment: RPS6KA6 (RSK4) Kinase screen; details: Compound concentration 1.0 uM
Chain of Ribosomal protein S6 kinase alpha-6 (Homo sapiens) (Q9UK32 whole entry): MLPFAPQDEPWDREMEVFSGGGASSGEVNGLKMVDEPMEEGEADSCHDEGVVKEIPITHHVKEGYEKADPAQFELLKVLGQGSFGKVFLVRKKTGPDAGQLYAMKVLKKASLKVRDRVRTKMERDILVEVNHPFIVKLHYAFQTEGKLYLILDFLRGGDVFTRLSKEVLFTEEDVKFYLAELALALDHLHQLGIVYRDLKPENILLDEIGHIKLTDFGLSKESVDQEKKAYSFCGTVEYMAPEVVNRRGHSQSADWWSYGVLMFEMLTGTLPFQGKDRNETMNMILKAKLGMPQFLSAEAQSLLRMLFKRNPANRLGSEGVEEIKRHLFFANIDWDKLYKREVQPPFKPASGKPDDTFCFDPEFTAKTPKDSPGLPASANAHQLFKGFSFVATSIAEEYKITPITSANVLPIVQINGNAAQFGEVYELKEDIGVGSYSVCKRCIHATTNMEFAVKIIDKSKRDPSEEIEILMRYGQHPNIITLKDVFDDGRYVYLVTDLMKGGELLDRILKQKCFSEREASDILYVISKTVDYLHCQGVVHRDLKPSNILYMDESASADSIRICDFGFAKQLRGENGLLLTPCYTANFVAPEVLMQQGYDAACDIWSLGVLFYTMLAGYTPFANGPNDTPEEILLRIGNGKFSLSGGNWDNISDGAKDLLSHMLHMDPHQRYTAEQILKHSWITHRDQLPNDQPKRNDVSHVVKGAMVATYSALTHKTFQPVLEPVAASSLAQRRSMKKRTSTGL

[4] = test system: Mast/stem cell growth factor receptor Kit (Homo sapiens), P10721 [T670I]; experiment: KIT T670I Kinase screen; details: Compound concentration 1.0 uM
[5] = target: Muscarinic acetylcholine receptor M3 (Homo sapiens) (UniProt P20309); details: Compound concentration 10.0 uM
[6] = target: High affinity nerve growth factor receptor (Homo sapiens) (UniProt P04629); experiment: NTRK1 (TRKA) Kinase screen; details: Compound concentration 1.0 uM
[7] = target: Melanocortin receptor 4 (Homo sapiens) (UniProt P32245); experiment: Inhibition of Melanocortin MC4 at 10 µM in the Eurofins-Panlabs radioligand binding assay (Eurofins_assay_251350); set-up: ligand concentration 0.02 nM; details: Compound concentration 10.0 uM
Chain of Melanocortin receptor 4 (Homo sapiens) (P32245 whole entry): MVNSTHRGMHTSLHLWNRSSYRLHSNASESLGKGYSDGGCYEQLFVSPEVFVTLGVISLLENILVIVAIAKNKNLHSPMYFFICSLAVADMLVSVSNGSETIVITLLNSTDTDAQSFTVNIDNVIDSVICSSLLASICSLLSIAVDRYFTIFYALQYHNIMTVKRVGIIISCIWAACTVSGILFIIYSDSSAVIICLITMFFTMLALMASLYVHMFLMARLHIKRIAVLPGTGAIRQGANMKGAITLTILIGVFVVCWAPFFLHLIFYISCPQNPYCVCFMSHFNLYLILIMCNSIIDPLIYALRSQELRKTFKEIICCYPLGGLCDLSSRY

[8] = target: T1, Alpha-2B adrenergic receptor (Homo sapiens) (UniProt P18089); details: Compound concentration 10.0 uM
T1 sequence (whole entry): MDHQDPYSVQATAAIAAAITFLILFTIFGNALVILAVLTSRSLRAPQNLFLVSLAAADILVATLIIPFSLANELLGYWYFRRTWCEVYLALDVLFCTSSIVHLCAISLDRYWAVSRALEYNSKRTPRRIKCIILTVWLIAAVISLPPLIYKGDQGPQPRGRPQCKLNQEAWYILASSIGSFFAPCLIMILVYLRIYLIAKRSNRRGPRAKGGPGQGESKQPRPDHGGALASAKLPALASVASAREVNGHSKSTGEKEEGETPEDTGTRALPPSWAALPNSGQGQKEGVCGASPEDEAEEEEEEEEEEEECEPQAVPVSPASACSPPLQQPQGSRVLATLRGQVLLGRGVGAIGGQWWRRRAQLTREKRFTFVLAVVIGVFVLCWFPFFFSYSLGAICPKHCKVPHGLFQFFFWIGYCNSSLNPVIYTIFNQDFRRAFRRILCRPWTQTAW

[9] = target: Beta-3 adrenergic receptor (Homo sapiens) (UniProt P13945); details: Compound concentration 10.0 uM
Chain of Beta-3 adrenergic receptor (Homo sapiens) (P13945 whole entry, looked up): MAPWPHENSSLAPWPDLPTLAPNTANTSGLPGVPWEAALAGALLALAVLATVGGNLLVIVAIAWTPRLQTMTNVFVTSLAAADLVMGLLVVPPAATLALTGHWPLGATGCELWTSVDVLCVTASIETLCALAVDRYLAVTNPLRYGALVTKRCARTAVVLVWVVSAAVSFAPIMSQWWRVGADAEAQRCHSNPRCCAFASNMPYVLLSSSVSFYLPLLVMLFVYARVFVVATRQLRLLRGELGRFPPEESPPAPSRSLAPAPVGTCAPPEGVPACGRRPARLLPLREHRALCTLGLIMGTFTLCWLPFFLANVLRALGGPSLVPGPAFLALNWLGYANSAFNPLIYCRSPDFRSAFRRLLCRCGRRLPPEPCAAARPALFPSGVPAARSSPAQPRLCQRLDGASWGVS

[10] = target: Sodium-dependent dopamine transporter (Homo sapiens) (UniProt Q01959); details: Compound concentration 10.0 uM
Chain of Sodium-dependent dopamine transporter (Homo sapiens) (Q01959 whole entry): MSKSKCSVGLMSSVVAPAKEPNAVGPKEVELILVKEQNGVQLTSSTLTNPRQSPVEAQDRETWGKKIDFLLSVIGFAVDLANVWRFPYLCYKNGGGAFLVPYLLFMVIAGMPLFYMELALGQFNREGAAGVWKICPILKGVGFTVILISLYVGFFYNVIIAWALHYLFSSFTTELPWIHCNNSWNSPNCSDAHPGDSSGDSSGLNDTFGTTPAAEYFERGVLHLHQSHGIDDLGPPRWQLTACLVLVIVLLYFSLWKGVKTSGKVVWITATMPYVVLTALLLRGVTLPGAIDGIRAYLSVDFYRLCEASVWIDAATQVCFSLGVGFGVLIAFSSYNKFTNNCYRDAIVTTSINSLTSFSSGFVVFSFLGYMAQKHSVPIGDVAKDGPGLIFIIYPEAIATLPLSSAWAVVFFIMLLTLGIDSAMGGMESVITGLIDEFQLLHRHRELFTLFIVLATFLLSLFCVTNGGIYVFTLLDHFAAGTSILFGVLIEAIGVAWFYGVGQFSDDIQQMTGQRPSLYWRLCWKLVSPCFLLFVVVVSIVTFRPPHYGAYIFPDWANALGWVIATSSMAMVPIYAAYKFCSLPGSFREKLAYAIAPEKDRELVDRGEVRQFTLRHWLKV

[11] = target: Mitogen-activated protein kinase kinase kinase kinase 5 (Homo sapiens) (UniProt Q9Y4K4); experiment: MAP4K5 (KHS1) Kinase screen; details: Compound concentration 1.0 uM
Chain of Mitogen-activated protein kinase kinase kinase kinase 5 (Homo sapiens) (Q9Y4K4 whole entry, looked up): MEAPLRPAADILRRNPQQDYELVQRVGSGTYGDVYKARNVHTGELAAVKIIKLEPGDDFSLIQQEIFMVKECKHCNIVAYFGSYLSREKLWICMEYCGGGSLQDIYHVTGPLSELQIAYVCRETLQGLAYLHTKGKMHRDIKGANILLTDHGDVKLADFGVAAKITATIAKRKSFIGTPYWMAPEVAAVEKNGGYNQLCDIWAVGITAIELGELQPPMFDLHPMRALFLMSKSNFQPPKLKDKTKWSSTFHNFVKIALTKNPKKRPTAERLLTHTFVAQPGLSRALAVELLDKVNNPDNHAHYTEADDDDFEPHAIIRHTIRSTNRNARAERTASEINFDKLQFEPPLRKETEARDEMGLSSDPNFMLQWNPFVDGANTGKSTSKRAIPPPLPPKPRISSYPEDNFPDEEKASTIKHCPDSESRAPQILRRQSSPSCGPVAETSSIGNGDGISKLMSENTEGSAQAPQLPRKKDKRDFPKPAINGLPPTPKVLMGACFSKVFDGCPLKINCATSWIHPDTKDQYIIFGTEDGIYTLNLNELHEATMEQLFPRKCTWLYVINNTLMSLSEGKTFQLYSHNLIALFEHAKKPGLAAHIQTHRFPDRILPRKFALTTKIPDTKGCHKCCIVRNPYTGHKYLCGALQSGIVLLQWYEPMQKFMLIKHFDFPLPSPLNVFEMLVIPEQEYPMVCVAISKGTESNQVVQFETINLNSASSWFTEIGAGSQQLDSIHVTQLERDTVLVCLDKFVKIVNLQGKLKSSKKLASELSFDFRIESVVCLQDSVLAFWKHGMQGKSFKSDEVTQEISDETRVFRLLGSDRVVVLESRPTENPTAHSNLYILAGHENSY

[12] = target: T2, MAP/microtubule affinity-regulating kinase 4 (Homo sapiens) (UniProt Q96L34); experiment: MARK4 Kinase screen; details: Compound concentration 1.0 uM
T2 sequence (whole entry): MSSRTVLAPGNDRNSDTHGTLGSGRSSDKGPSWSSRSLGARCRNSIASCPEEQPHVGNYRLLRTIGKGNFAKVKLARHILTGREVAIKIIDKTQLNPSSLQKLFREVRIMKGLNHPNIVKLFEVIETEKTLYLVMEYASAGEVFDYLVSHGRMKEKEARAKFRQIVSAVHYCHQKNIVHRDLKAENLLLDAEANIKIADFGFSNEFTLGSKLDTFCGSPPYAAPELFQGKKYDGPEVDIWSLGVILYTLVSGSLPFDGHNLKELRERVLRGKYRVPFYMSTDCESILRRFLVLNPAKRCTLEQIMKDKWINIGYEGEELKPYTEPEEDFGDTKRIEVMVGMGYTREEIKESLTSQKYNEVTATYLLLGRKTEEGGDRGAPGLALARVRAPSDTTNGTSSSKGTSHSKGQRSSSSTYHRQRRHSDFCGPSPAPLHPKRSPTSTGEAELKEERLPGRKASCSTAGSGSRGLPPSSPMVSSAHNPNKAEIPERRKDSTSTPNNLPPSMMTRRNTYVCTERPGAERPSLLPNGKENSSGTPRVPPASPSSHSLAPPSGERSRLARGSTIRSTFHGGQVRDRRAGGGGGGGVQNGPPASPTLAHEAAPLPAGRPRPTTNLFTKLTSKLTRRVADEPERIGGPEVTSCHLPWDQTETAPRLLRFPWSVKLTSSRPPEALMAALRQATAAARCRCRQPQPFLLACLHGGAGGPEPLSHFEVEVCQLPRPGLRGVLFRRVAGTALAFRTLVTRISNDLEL

Rattus norvegicus = organism: Rattus norvegicus; experiment: Testosterone Eurofins-Panlabs radioligand binding assay; set-up: ligand concentration 1.5 nM; details: Compound concentration 10.0 uM
[13] = target: Cathepsin G (Homo sapiens) (UniProt P08311); experiment: Inhibition of Peptidase, CTSG (Cathepsin G) at 10 µM in the Eurofins-Panlabs enzyme assay (Eurofins_assay_112510); set-up: substrate with concentration; details: Compound concentration 10.0 uM
Caspase-8 (Homo sapiens) = Caspase-8 (Homo sapiens) (UniProt Q14790); experiment: Peptidase, CASP8 (Caspase 8) Eurofins-Panlabs enzyme assay; details: Compound concentration 10.0 uM
Chain of Caspase-8 (Homo sapiens) (Q14790 217-374 limits assumed): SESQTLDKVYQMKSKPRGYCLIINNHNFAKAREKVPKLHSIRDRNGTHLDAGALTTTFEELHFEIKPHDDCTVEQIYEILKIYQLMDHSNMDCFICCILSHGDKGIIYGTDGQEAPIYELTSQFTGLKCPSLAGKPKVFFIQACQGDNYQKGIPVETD
Chain of Caspase-8 (Homo sapiens) (Q14790 385-479 limits assumed): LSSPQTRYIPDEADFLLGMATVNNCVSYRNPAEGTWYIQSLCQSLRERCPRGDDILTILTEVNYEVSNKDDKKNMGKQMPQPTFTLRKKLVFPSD

[14] = target: Histamine H1 receptor (Homo sapiens) (UniProt P35367); details: Compound concentration 10.0 uM
Chain of Histamine H1 receptor (Homo sapiens) (P35367 whole entry): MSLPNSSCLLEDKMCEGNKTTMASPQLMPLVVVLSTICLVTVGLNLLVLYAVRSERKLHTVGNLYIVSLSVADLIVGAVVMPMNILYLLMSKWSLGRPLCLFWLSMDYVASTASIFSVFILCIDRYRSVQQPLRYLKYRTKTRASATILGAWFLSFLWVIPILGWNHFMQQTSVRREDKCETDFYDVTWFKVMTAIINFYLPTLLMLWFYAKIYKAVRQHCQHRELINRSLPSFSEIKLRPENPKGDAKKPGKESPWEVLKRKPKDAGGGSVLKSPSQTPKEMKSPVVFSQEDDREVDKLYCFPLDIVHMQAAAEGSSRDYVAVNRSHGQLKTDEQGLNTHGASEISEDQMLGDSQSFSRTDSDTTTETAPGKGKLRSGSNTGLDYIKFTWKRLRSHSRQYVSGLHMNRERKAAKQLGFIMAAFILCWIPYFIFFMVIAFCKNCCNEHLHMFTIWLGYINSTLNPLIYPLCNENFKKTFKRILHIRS

[15] = target: Mitogen-activated protein kinase kinase kinase 10 (Homo sapiens) (UniProt Q02779); experiment: MAP3K10 (MLK2) Kinase screen; details: Compound concentration 1.0 uM
[16] = target: Tyrosine-protein kinase HCK (Homo sapiens) (UniProt P08631); experiment: HCK Kinase screen; details: Compound concentration 1.0 uM
Chain of Tyrosine-protein kinase HCK (Homo sapiens) (P08631 2-526 limits assumed): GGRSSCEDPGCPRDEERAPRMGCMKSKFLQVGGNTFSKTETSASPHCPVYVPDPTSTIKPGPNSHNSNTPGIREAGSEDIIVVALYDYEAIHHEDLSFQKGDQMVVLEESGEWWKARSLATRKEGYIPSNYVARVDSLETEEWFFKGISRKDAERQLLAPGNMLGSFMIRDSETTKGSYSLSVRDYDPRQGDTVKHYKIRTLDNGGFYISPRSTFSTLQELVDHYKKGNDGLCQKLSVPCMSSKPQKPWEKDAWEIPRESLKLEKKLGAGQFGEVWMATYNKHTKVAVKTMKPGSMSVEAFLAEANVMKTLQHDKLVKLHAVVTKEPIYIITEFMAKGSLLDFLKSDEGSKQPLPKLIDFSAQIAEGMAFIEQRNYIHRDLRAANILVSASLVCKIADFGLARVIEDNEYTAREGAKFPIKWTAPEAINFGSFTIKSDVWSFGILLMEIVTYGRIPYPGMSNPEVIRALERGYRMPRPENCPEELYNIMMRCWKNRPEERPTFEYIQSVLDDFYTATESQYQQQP

[17] = target: Mitogen-activated protein kinase 14 (Homo sapiens) (UniProt Q16539); experiment: MAPK14 (p38 alpha) Direct Kinase screen; details: Compound concentration 1.0 uM
[18] = target: Glucocorticoid receptor (Homo sapiens) (UniProt P04150); details: Compound concentration 10.0 uM
Chain of Glucocorticoid receptor (Homo sapiens) (P04150 whole entry): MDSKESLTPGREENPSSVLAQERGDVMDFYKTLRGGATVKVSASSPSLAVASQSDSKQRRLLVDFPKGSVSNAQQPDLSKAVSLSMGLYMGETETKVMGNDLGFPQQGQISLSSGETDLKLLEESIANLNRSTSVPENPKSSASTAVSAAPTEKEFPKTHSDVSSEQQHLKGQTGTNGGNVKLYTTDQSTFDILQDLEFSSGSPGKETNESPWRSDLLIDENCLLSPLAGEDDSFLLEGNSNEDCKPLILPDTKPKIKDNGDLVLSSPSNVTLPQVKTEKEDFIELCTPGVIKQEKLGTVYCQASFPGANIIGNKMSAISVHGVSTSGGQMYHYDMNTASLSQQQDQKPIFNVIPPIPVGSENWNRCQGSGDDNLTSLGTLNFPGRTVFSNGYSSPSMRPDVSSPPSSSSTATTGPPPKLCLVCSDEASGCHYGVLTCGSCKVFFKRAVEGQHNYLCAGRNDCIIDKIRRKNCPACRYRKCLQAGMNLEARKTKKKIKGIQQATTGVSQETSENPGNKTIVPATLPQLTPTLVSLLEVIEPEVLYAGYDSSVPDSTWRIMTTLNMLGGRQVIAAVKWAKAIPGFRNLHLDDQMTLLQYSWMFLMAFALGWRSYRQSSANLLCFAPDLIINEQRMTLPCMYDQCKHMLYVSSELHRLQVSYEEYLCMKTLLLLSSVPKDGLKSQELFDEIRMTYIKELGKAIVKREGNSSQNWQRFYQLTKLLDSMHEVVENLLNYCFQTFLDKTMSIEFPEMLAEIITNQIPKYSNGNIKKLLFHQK

[19] = target: T3, 5-hydroxytryptamine receptor 2C (Homo sapiens) (UniProt P28335); details: Compound concentration 10.0 uM
T3 sequence (whole entry): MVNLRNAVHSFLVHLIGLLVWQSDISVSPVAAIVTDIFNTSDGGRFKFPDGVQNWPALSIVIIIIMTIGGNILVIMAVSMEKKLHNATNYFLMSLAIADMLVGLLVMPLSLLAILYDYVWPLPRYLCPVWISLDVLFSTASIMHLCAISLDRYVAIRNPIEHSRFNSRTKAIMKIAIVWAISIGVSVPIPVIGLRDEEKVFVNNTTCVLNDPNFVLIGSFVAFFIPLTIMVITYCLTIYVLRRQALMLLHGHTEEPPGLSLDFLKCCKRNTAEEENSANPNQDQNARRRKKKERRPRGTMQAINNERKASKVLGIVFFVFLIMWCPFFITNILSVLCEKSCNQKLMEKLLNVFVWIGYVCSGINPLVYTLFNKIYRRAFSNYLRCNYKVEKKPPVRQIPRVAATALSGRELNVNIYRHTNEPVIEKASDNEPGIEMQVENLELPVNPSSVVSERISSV

[20] = target: Ribosomal protein S6 kinase alpha-3 (Homo sapiens) (UniProt P51812); experiment: RPS6KA3 (RSK2) Kinase screen; details: Compound concentration 1.0 uM
[21] = target: SRSF protein kinase 3 (Homo sapiens) (UniProt Q9UPE1); experiment: STK23 (MSSK1) Kinase screen; details: Compound concentration 1.0 uM
[22] = target: Sigma non-opioid intracellular receptor 1 (Homo sapiens, UniProt Q99720); experiment: GPCRScan assay: inhibition of Sigma 1; set-up: radioligand conc. used [nm] 4.0 – 5.0, parental cells HEKT

SMILES: C[C@@H]1CN(c2cc(-c3n[nH]c4ccc(OC5(C)CC5)cc34)ncn2)C[C@H](C)O1 [MLi-2]
- inhibition [1]: 4.45%
- inhibition [2]: -2.46%
- inhibition [3]: 3.23%
- inhibition [4]: -0.692%
- inhibition [5]: 26%
- inhibition [6]: 0.799%
- inhibition [7]: -6%
- inhibition [8]: 2%
- inhibition [9]: 21%
- inhibition [10]: 16%
- inhibition [11]: 3.26%
- inhibition [12]: 15.7%
- inhibition (Rattus norvegicus): 9%
- inhibition [13]: 9%
- inhibition (Caspase-8 (Homo sapiens)): 7%
- inhibition [14]: -4%
- inhibition [15]: 0.659%
- inhibition [16]: 7.67%
- inhibition [17]: 8.11%
- inhibition [18]: 19%
- inhibition [19]: -7%
- inhibition [20]: 3.91%
- inhibition [21]: 11.9%

SMILES: C[C@@H]1CN(c2cc(-c3nn(C)c4ccc(OC5(C)CC5)cc34)ncn2)C[C@H](C)O1 [MLi-2-NC]
- pKi [22]: 5.80
